Laboratory results taken from patent US8241607B2, “Use of fructose-based compounds for the diagnosis of cancer” (priority 2005, dated 2012).

How the values were obtained:
AP-1 = AP-1 probe binding assay on nuclear extracts of a primary culture of a pancreatic tumor; assay type: cell-based, human; conditions: 5.5 mM sugar, 48 h
Procedure: FIG. 24 depicts luciferase activity of PANC-1 cells and primary culture of surgically resected pancreatic tumor cells in accordance with an embodiment of the present invention. PANC-1 pancreatic cancer cells and a primary culture of a surgically resected pancreatic tumor were incubated in 2 mM glucose, 5.5 mM glucose or 5.5 mM fructose for 48 h, after which nuclear extracts were incubated with a biotinylated AP-1 probe, and detected by an antibody-linked colorimetric method. *, p<0.01
In separate experiments PANC-1 cells, and primary cultures of surgically resected pancreatic tumors were incubated in 2 mM glucose, or 5.5 mM glucose or 5.5 mM fructose for 48 h, after which nuclear extracts were incubated with a biotinylated AP-1 probe in binding buffer. AP-1/AP1 probe complexes were next conjugated to a streptavidin-coated assay plate and detected using an AP-1 specific antibody, followed by binding of a horseradish-peroxidase conjugated secondary antibody, and detection by a colorimetric reagent.

normal pancreas tissue = test: Substrate oxidation with 13C tracers in primary culture of normal pancreas; assay type: cell-based, human; conditions: 5.5 mM, 72 h
Procedure: FIG. 31 depicts substrate oxidation in accordance with an embodiment of the present invention. Substrate oxidation in a primary culture of a normal pancreas (left), and a pancreatic cancer (right) following incubation in 2 mM, or 5 mM glucose, or 5 mM fructose for 72 h.
In separate studies, the inventors treated primary cultures of 4 pancreatic adenocarcinomas, and 3 normal pancreas tissues with the [1,2-^13C2]D-glucose-, or -fructose-tracers as before for 72 h, and carried out metabolic studies.

transketolase (TKK) = test: Transketolase activity in PANC-1 lysates (NADH oxidation); assay type: cell-based; conditions: 5.5 mM fructose, 72 h
Procedure: FIG. 34 depicts quantitation of transketolase activity in pancreatic cancer PANC-1 cells following incubation in 2 mM glucose, 5.5 mM glucose, and 5.5 mM fructose for 24 h, 48 h, and 72 h respectively, in accordance with an embodiment of the present invention.
The inventors believe that fructose-treatment of pancreatic cancer cells led to an increase in TKK-driven nucleic acid synthesis, and thus fructose-treatment would result in an increase in either PANC-1 TKK expression and/or activity in comparison to equivalent glucose concentrations. Western blot analysis on protein lysates derived from fructose-, and glucose-treated PANC-1 cells were performed (5.5 mM fructose, and glucose for 24, and 48 h as per previous protocol) using a specific TKK antibody, and compared TKK expression in the fructose-, and glucose-treated PANC-1 cells. As depicted in FIG. 33, TKK expression at 24 h, and 48 h in protein lysates derived from 5.5 mM glucose-treated PANC-1 cells was increased in comparison to expression in 2 mM glucose-treated cells. […] After gentle mixing the absorbance of the mixture was measured at 10 min intervals for 2 h at 340 nm. Transketolase activity was then derived from the difference in absorbance at 10, and 80 minutes, and expressed as nmol/min/million cells. […] Pancreatic cancer proliferation rates were then measured using the MTS assay (FIG. 35).

SMILES: O=C(CO)[C@@H](O)[C@H](O)[C@H](O)CO [fructose]
- increase in AP-1 activation compared to 2 mM glucose (AP-1): 2.1 fold
- substrate oxidation to CO2 (normal pancreas tissue): effectively oxidizes
- TKK activity in comparison to 5.5 mM glucose-treated cells (transketolase (TKK)): 1.7 fold higher
